Experimental data published in publication PMC12169455, “Discovery of Indole-Based PDE5 Inhibitors: Synthesis and Pharmacological Evaluation” (ACS Medicinal Chemistry Letters, 2025).
Where two headings read alike, the source gives them in different places.

Experiments:
[1] = target: Recombinant human PDE5 (Homo sapiens, UniProt O76074); test: PDE5 enzymatic assay coupled with LC/MS analysis for cGMP determination; assay type: biochemical
[2] = test system: MCF-7 mammary epithelial adenocarcinoma cells; test: MTT cytotoxicity assay; assay type: cell-based; settings: MCF-7, MTT
Description: The cytotoxicity effect of compound 14a was investigated to validate its suitability as a lead compound for further drug development. The cancer cell line MCF-7 was used in an MTT assay assessing cell metabolic activity (see Supporting Information for materials and methods).
5 Cytotoxicity assay of compound 14a. The compound (0.1–100 μM) was dissolved in 20% DMSO in saline; ns = nonsignificant. […]
µM concentrations. […] The cells
MultiScreen® filter plate (cat. no. MAIPNTR10, Millipore). Sample solutions (300 µL, 50 µM, […]
at room temperature for 18 hours. Samples from the acceptor wells were collected and analyzed by HPLC (Nexera-i LC-2040C Plus, Shimadzu). Equilibrium solutions of compounds 5e, 14a, […]
HPLC. The assay was performed in triplicate. […]
used for the HPLC analysis. […]
apparent permeability (Papp) using the following equation:
P = C × ― ln 1 ― AUCa cm/s […]
this protocol, the donor volume (Vd) is 0.3 cm3, acceptor volume (Va) is 0.15 cm3, membrane

[3] = PAMPA using porcine brain lipids (BBB permeability); settings: pig
[4] = PDE5 IC50 ± SEM, compound concentration range 0.1 nM – 100 μM, substrate concentration 150 nM
[5] = read-out: % PDE5 Inhibition ± SEM
[6] = compound concentration range 0.1 nM – 100 μM, substrate concentration 150 nM, read-out: PDE5 IC50 ± SEM
[7] = compound tested at 10 μM, average of at least three independent experiments, read-out: % PDE5 Inhibition ± SEM
[8] = Papp (RSD), tested at 50 μM, 18 hours, n.d. = not detected
[9] = Papp relative to the BBB-permeable cutoff, higher than cutoff = BBB-permeable

Row | SMILES | IC50 [1, 6] [µM] | inhibition at 10 µM [1, 7] [%] | other results
1 | COc1ccc(CN(C)C(=O)c2cn(CCN(C)C)c3ccc(C#N)cc23)cc1Cl.Cl [Compound 14d] | – | – | IC50 [1, 4]: 4.9 ± 0.68 µM; reduction of the enzymatic activity (PDE5) compared to 14a ([1]; amide hydrogen replaced by methyl): 2 log unit; inhibition at 10 µM [1, 5]: 52 ± 6.68%
2 | COc1ccc(NCc2cn(CC(C)C)c3ccc(C#N)cc23)cc1Cl [Compound 5d] | 1.72 ± 0.72 | 99.2 ± 2.72 | –
3 | COc1ccc(CNC(=O)c2cn(CCN(C)C)c3ccc(C#N)cc23)cc1Cl [Compound 14a] | – | – | IC50 ([1]; PDE5 IC50, value quoted in abstract and conclusion): 0.0161 µM; IC50 [1, 4]: 0.0161 ± 0.007 µM; increase in biological activity (PDE5) on replacing amine with amide ([1]; compared with amine analogues): 2 log unit; inhibition at 0.5 µM [1, 5]: 101 ± 4.99%; biologically safe up to (cytotoxicity assay) [2]: up to 100 μM; concentration showing a cytotoxic effect ([2]; after 72 h incubation, safe at all other concentrations tested (0.1–100 μM)): 100 µM; Papp at 18 h, 50 µM [3, 8]: 2.83 ×10⁻⁶ cm/s; Papp at 18 h, 50 µM [3, 9]: > 2 ×10⁻⁶ cm/s
4 | CCCc1nn(C)c2c(=O)[nH]c(-c3cc(S(=O)(=O)N4CCN(C)CC4)ccc3OCC)nc12 [Sildenafil, sildenafil, reference compound] | – | – | inhibition at 0.01 µM [1, 5]: 58.2 ± 2.33%
5 | CCCn1cc(CNc2ccc(OC)c(Cl)c2)c2cc(C#N)ccc21 [Compound 5b] | 2.46 ± 0.13 | 94.8 ± 2.58 | –
6 | COc1ccc(NCc2cn(CC3CC3)c3ccc(C#N)cc23)cc1Cl [Compound 5c] | 1.37 ± 0.3 | 86.3 ± 1.97 | –
7 | COc1ccc(NC(=O)c2cn(CCN(C)C)c3ccc(C#N)cc23)cc1Cl [Compound 14b] | – | – | IC50 [1, 4]: 10.6 ± 1.99 µM; inhibition at 10 µM [1, 5]: 47.5 ± 2.33%
8 | COc1ccc(CNC(=O)c2cn(CCN(C)C)c3ccccc23)cc1Cl [Compound 14c] | – | – | IC50 [1, 4]: 3.65 ± 0.97 µM; PDE5 inhibition effect compared to compound 5e ([1]; at 10 μM): about double; inhibition at 10 µM [1, 5]: 66.1 ± 2.34%
9 | COc1ccc(NCc2cn(CCN(C)C)c3ccc(C#N)cc23)cc1Cl [Compound 5e] | – | 26.2 ± 3.85 | Papp at 18 h, 50 µM [3, 8]: 5.62 ×10⁻⁶ cm/s; Papp at 18 h, 50 µM [3, 9]: > 2 ×10⁻⁶ cm/s
10 | COc1ccc(NCc2cn(C)c3ccc(C#N)cc23)cc1Cl [Compound 5a] | 2.65 ± 0.48 | 77 ± 4.87 | –
11 | Cn1cc(CNCCN2CCOCC2)c2cc(C#N)ccc21 [Compound 5j] | – | 10.5 ± 1.69 | –

Continued, in another order:

Row | IC50 [1, 6] [µM] | inhibition at 10 µM [1, 7] [%] | SMILES | other results
12 | – | 73.4 ± 7.5 | COc1ccc(Nc2cn(S(=O)(=O)c3ccc(C)cc3)c3ccc(C#N)cc23)cc1Cl [Compound 10] | –
13 | 10.4 ± 0.15 | 74.5 ± 1.95 | COCCn1cc(CNc2ccc(OC)c(Cl)c2)c2cc(C#N)ccc21 [Compound 5f] | –
14 | 1.77 ± 0.39 | 73.4 ± 4.13 | Cn1cc(CNCc2ccc(Cl)c(C(F)(F)F)c2)c2cc(C#N)ccc21 [Compound 5k] | –
15 | – | 23.6 ± 2.24 | Cn1cc(CNCc2ccc3c(c2)OCO3)c2cc(C#N)ccc21 [Compound 5i] | –
16 | 1.25 ± 0.15 | 72.2 ± 1.25 | COc1ccc(CNCc2cn(C)c3ccc(C#N)cc23)cc1Cl [Compound 5h] | –
17 | – | 54.5 ± 4.21 | COc1ccc(NCc2cn(Cc3ccncc3)c3ccc(C#N)cc23)cc1Cl [Compound 5g] | –
